Source: the NIST ThermoML archive (doi:10.1016/j.jct.2009.01.010)
Several values for one entry are separate records, joined by “and”; a condition that tells them apart may be missing. Equal entries are not always repeated.

Columns and labels:
[1] = 298.15 K, 101 kPa, Liquid; for mass density: Pycnometric method
[2] = refractive index (Na D-line) (dimensionless); conditions: 298.15 K; 101.33 kPa; Liquid; Abbe refractometer
[3] = refractive index (Na D-line) (dimensionless); xn = mol fraction of the nth substance listed; conditions: 298.15 K, 101 kPa, Liquid, Abbe refractometer
[4] = xn = mol fraction of the nth substance listed; conditions: 298.15 K, 101 kPa, Liquid; for speed of sound: Linear variable-path acoustic interferometer; for mass density: Pycnometric method

O [water]
Conditions | mass density [kg/m3] | refractive index
[1] | 999.704 | –
[2] | – | 1.333 and 1.3325

CCOCCO [2-ethoxyethan-1-ol] + O
Conditions | mass density, [4] [kg/m3] | refractive index, [3] | speed of sound, [4] [m/s]
x1 = 0.0092 | 996.93 | 1.3389 | 1541.3
x1 = 0.0177 | 997.02 | 1.3415 | 1553.1
x1 = 0.025 | 997.2 | 1.3442 | 1575.6
x1 = 0.0502 | 998.06 | 1.3542 | 1626.9
x1 = 0.0767 | 998.24 | 1.3628 | 1649.6
x1 = 0.1024 | 996.67 | 1.3709 | 1646.5
x1 = 0.183 | 988.37 | 1.3854 | 1567.6
x1 = 0.299 | 974.41 | 1.394 | 1517.4
x1 = 0.4058 | 963.11 | 1.3979 | 1458.1
x1 = 0.5059 | 954.22 | 1.4012 | 1415.2
x1 = 0.5996 | 947.01 | 1.4025 | 1385.7
x1 = 0.706 | 940.07 | 1.4039 | 1359.6
x1 = 0.8431 | 933.47 | 1.4046 | 1330.4
x1 = 0.8716 | 932.35 | 1.4049 | 1325.6
x1 = 1 | 925.39 | 1.4058 | 1302.5

CCOCCO [2-ethoxyethan-1-ol]
Conditions | speed of sound [m/s]
[1], Linear variable-path acoustic interferometer | 1302.5

Conditions | mass density [kg/m3] | refractive index
[1] | 925.39 | –
[2] | – | 1.4058

COCCO [2-methoxyethan-1-ol] + O
Conditions | mass density, [4] [kg/m3] | refractive index, [3] | speed of sound, [4] [m/s]
x1 = 0.0202 | 999.08 | 1.34 | 1546.5
x1 = 0.04 | 1001.08 | 1.346 | 1581
x1 = 0.0539 | 1002.4 | 1.35 | 1600.9
x1 = 0.0822 | 1004.71 | 1.357 | 1636.5
x1 = 0.101 | 1005.84 | 1.361 | 1643.7
x1 = 0.1509 | 1007.02 | 1.37 | 1654.7
x1 = 0.2036 | 1005.67 | 1.378 | 1641.7
x1 = 0.3025 | 999.82 | 1.386 | 1587.3
x1 = 0.4033 | 992.74 | 1.391 | 1532.3
x1 = 0.5009 | 985.91 | 1.394 | 1488.5
x1 = 0.5514 | 982.57 | 1.395 | 1470.9
x1 = 0.6976 | 974 | 1.396 | 1418.8
x1 = 0.7855 | 969.57 | 1.398 | 1392
x1 = 0.889 | 964.87 | 1.398 | 1369.3
x1 = 1 | 960.23 | 1.4002 | 1341.7

O [water] + CCOCCO
x2 = 0
Conditions | mass density [kg/m3] | refractive index
[3] | – | 1.3325
[4] | 999.704 | –
